Structures are written as SMILES.

For this test, the system named is human PBMC, CCR5-tropic HIV-1 replication, RT activity. Nature of the test: HIV-1 replication inhibition in human PBMCs, dose response, cell-based, CCR5-tropic HIV-1, primary PBMCs (AID 504503).

`Cc1c2c(=O)n(-c3nc4ccccc4s3)nc-2cc(O)n1C1CC1`: the IC50 is 2.17 µM.
For `COc1ccc(CCn2c(O)cc3nn(-c4nc5ccccc5s4)c(=O)c-3c2C)cc1`, the half-maximal inhibitory concentration (IC50) is 5.11 µM.
For `Cc1c2c(=O)n(-c3nc4ccccc4s3)nc-2cc(O)n1Cc1ccc(F)cc1` the value was 6.8 µM.
For `Cc1c2c(=O)n(-c3nc4ccccc4s3)nc-2cc(O)n1CCC(C)C` the value was 5.37 µM; for `COc1ccccc1Cn1c(O)cc2nn(-c3nc4ccccc4s3)c(=O)c-2c1C`, 3.93 µM.
Take `COc1ccc(Cn2c(O)cc3nn(-c4nc5ccccc5s4)c(=O)c-3c2C)cc1`: the IC50 is 4.88 µM.
With `Cc1c2c(=O)n(-c3nc4ccccc4s3)nc-2cc(O)n1Cc1cccs1` the figure was 10.5 µM.
Take `Cc1c2c(=O)n(-c3nc4ccccc4s3)nc-2cc(O)n1CCc1ccc(O)cc1`: the IC50 was 1.29 µM.
For `Cc1c2c(=O)n(-c3nc4ccccc4s3)nc-2cc(O)n1Cc1cccnc1` the value was 2.82 µM.
For `Cc1c2c(=O)n(-c3nc4ccccc4s3)nc-2cc(O)n1CCc1cccs1` the value was 16.6 µM; for `Cc1c2c(=O)n(-c3nc4ccccc4s3)nc-2cc(O)n1Cc1ccccc1Cl`, 5.16 µM.
With `Cc1c2c(=O)n(-c3nc4ccccc4s3)nc-2cc(O)n1Cc1ccncc1` the figure was 1.6 µM.

One may read the IC50 as the point on the concentration scale where inhibition reaches its midpoint.

The values are drawn from PubChem BioAssay AID504503 (Southern Research Specialized Biocontainment Screening …, 2011).
